Patent US20220304349A1, “Steviol Glycoside Compositions for Oral Ingestion or Use” (CARGILL, Incorporated, priority 2016, published 2022)

What was measured:
[1] = Instantaneous solubility: vigorous mixing with deionized water for 10 minutes at room temperature; assay type: physicochemical; details: for concentration of the rebaudioside in the instantaneously soluble 0.37% solution of the fermentation composition: room temperature water; for instantaneous solubility: water, room temperature
Method: The composition can optionally be expressed in terms of the concentration of one or more steviol glycoside(s). […] Clear solutions without precipitates are considered soluble. Unless indicated otherwise herein, the term “solubility” refers to “equilibrium solubility.”
Instantaneous solubility is determined by mixing steviol glycoisde with deionized water vigorously for 10 minutes at room temperature. […] Clear solutions without precipitates are considered soluble.

[2] = Equilibrium solubility: heating in deionized water at 80° C. for 15 minutes, cooling to room temperature, observation up to 4 days; assay type: physicochemical; parameters: key to equilibrium solubility at stated concentration: Clear solutions without precipitates are considered soluble
Excerpt: The composition can optionally be expressed in terms of the concentration of one or more steviol glycoside(s). […] Clear solutions without precipitates are considered soluble. Unless indicated otherwise herein, the term “solubility” refers to “equilibrium solubility.” […]

UGT 76G1 and EUGT11 = biological target: T1, UGT 76G1 and EUGT11 (Stevia rebaudiana, UniProt Q6VAB4); experiment: Bioconversion of steviol glycosides with crude UGT enzyme preparations expressed in E. coli, LC-UV analysis; assay type: biochemical; details: UGT clone 76G1; 2 mM substrate fed, overnight at 30° C.
T1 construct: made in house; host or cells: E. coli XjB-autolysis BL21(DE3), pET30 vector, crude lysate
T1 sequence (Q6VAB4 1-458): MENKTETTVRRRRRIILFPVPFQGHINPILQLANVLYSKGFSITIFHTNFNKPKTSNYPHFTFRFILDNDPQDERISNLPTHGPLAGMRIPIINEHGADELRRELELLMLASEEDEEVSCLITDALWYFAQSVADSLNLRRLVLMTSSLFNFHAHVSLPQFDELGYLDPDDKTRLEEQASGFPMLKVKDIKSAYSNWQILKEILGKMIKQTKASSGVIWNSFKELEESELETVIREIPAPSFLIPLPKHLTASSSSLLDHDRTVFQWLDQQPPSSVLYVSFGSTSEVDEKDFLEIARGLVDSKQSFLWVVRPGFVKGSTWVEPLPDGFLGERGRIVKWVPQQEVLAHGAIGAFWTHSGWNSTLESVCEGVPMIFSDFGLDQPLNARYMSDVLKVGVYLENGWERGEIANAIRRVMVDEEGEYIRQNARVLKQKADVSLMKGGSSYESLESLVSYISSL
Method: The wildtype genes for UGTs EUGT11 and 76G1 are cloned individually into E. coli XjB-autolysis BL21(DE3) cells using the pET30 vector system from Novagen (EMD4 Biosciences, Madison, Wis.). All vectors use an IPTG-inducible promoter. Plasmid DNA is transformed into chemically competent cells as described by the vendor.
For in vitro assays, transformants displaying the desired antibiotic resistance are grown overnight at 30° C. in 2 mL cultures using NZCYM-media and antibiotic. The following day, the cultures are induced to a final concentration of 0.3 mM IPTG and 3 mM arabinose, and grown for 24 h at 20° C. The cells are then harvested by centrifugation at 4000 rpm for […] and resuspended in 200 μL GT-buffer (RBC Bioscience) and 3 tablets/100 ml of Complete mini, protease inhibitor (Roche), transferred to Eppendorf tubes, vortexed and frozen at −80° C. for 1.5 hour. Cells are thawed on ice, and left at room temperature for 3 minutes. When approximately half-way thawed, 15 μl of 0.14 mg/ml H2O DNase solution+30 μl 0.05M MgCl2 is added to each tube and the samples are incubated for approximately 5 minutes at room temperature. The cells are centrifuged at maximum speed for 5 minutes. One-hundred μL of supernatant (lysate) is transferred to fresh microfuge tubes, and 100 μL of glycerol is added. […]

[3] = in vivo; cited from earlier work
[4] = cited from earlier work

C=C1C[C@@]23CC[C@H]4[C@@](C)(CCC[C@@]4(C)C(=O)O[C@@H]4O[C@H](CO)[C@@H](O)[C@H](O)[C@H]4O[C@@H]4O[C@H](CO)[C@@H](O)[C@H](O)[C@H]4O)[C@@H]2CC[C@]1(O[C@@H]1O[C@H](CO)[C@@H](O)[C@H](O[C@@H]2O[C@H](CO)[C@@H](O)[C@H](O)[C@H]2O)[C@H]1O[C@@H]1O[C@H](CO)[C@@H](O)[C@H](O)[C@H]1O)C3 [Reb D, rebaudioside D]
instantaneous solubility at stated concentration ([1]; 0.08%): insoluble
instantaneous solubility at stated concentration ([1]; 0.10%): insoluble
instantaneous solubility at stated concentration ([1]; 0.15%): insoluble
instantaneous solubility at stated concentration ([1]; 0.20%): insoluble
improvement (increase) in instantaneous solubility over the pure rebaudioside ([1]; in the presence of compounds SG101-104 (fermentation derived composition)): 75%
concentration of the rebaudioside in the instantaneously soluble 0.37% solution of the fermentation composition [1]: 0.14%
concentration of the rebaudioside in the instantaneously soluble 0.37% solution of the fermentation composition ([1]; listed as reb D): about 0.14%
instantaneous solubility [1]: < 0.08%
instantaneous solubility ([1]; listed as rebaudioside D): less than 0.08%
equilibrium solubility at stated concentration ([2]; 0.08%): soluble
equilibrium solubility at stated concentration ([2]; 0.10%): insoluble
equilibrium solubility at stated concentration ([2]; 0.15%): insoluble
equilibrium solubility at stated concentration ([2]; 0.20%): insoluble
equilibrium solubility ([2]; after 80° C. for 15 minutes, at room temperature, up to 4 days): 0.08%
Products (UGT 76G1 and EUGT11): Rebaudioside M, various
sweetness characteristics [3]: slow onset of sweetness and was very clean
times sweeter than sucrose (sugar) [3]: 200-220 times
amount that can be solubilized in water ([4]; 23° C.): 300 to 450 ppm
aqueous solubility in words [4]: low solubility in water at room temperature
